# Test results as given in patent publication EP3866610B1, “CHOCOLATE MATRIX COMPRISING CURCUMIN AND RESVERATROL” (priority 2018, dated 2020).
# Read-outs that look alike come from different tables or passages of the source.
# Columns and labels:
# [1] = assay type: physicochemical
# Method: (§1) The SSF was prepared following the instructions included in the article published by Minekus et al. in 2014 in the journal Food & Function (Minekus M, Alminger M, Alvito P, et al. A standardized static in vitro digestion method suitable for food - an international consensus. Food & Funct. 2014. 5:1113-1124). In detail, the SSF was prepared by mixing the following saline solutions: • KCI at the concentration of 15.1 mmol/l, • KH2PO4 at the concentration of 3.7 mmol/l, • NaHCO3 at the concentration of 13.6 mmol/l, • MgCl2(H2O)6 at the concentration of 0.15 mmol/l, and • (NH4)2CO3 at the concentration of 0.06 mmol/l. […]
# (§2) Each sample as illustrated below was analysed in triplicate and the concentration of curcumin and resveratrol was calculated on the basis of two calibration curves previously constructed using the curcumin and resveratrol supplied as reference substance and dissolved in 96% ethanol. For processing the calibration curves, the curcumin and resveratrol solutions (prepared by dissolving an exactly weighed quantity of substance in 96% ethanol) were prepared and subjected to analysis in a concentration range, from 0.5 to 200 µg/ml . […]
# physchem [2] = assay type: physicochemical; settings: dmem medium, mean of technical triplicates, read-out: Concentration in DMEM medium
# Method: (§3) The chromatography analyses were performed using a HPLC-DAD Agilent 1100 system (Agilent, Waldbronn, Germany), comprising a quaternary pump, self-sampler with thermostat equipped with a 100 µl injection loop, column thermostat, DAD Agilent 1100 detector (Agilent, Waldbronn, Germany). For the system control and data analysis the Chemstation software was used. The separation of the compounds was obtained with a Gemini C18 110A analytical column (150 mm × 2 mm; particle diameter 5 µm), connected to a suitable pre-column, both purchased from Phenomenex, Torrance, CA, USA. […]
# as §2
# Subsequently, the cell pellet was re-suspended in 24 ml of DMEM medium and the sample was centrifuged at 6000 rpm for 10 minutes to remove the insoluble part. […] The quantities of the compounds added to the medium and were selected on the basis of the first experimental phase. […]
# HaCat cells = assay type: in vitro ADME, Human; settings: HaCat cells incubated 120 minutes at 37°C, mean of technical triplicates
# Method: as §3, §2
# The cells were detached mechanically using a scraper in 2 ml of PBS and transferred into a 15 ml Falcon test tube for being centrifuged at 1500 rpm for 5 minutes. […] The results obtained, reported in Table 4, were expressed as a mean of the technical triplicates. […]
# physchem [3] = assay type: physicochemical; settings: maltitol 1.35 g, curcumin 50 mg, resveratrol 50 mg, extraction with 6 ml SSF at room temperature
# Method: as §1, §2
solubility in SSF [1],"solubility (physchem [2]; no matrix, 167 mg curcumin and 167 mg resveratrol in 20 ml DMEM, filtered) [µg/mL]","solubility (physchem [2]; with chocolate matrix: 200 mg curcumin, 200 mg resveratrol, 5.4 g maltitol, 12 g dark chocolate, 799.2 µl ethanol, hexane-defatted, re-suspended in 24 ml DMEM) [µg/mL]","Concentration in cell pellet (absorption by the cells) (HaCat cells; no matrix, pellet re-suspended in 500 µl 96° ethanol) [ng/mL]","Concentration in cell pellet (absorption by the cells) (HaCat cells; with chocolate matrix, maltitol and ethanol) [ng/mL]","Concentration (physchem [3]; SAMPLE 2: 2.8528 g dark chocolate, ethanol 99.9 µL) [ng/mL]","solubility (physchem [3]; simulated salivary fluid, SAMPLE 1: 2.8528 g dark chocolate, ethanol 199.8 µL, read-out: Concentration) [µg/mL]",SMILES
substantial insolubility,–,–,–,–,–,–,COc1cc(/C=C/C(=O)CC(=O)/C=C/c2ccc(O)c(OC)c2)ccc1O [Curcumin]
–,31.8,125,0,3660,82470,156,"Oc1ccc(/C=C/c2cc(O)cc(O)c2)cc1 [Resveratrol, 3,5,4'-trihydroxy-trans-stilbene]"
